Key:
isolated human monocytes = experiment: In vitro toxicity testing (MTT viability); format: cell-based; details: concentrations up to 50 μM, 3 h or 24 h, n=3
Procedure: In Vitro Toxicity Testing: Adherent human monocytes, prepared as described above, were used. The cells were cultured with various concentrations of the test compounds or vehicle, or with 0.05% Triton-X as positive control for 3 h or 24 h. At the end of the culture, cell viability was determined using the MTT (3-(4,5 dimethylthiazol-2-yl)-2,5-diphenyltetrazolium bromide) assay method. Briefly, 15 μl of the MTT solution (5 mg/ml) was added to each well, and incubated at 37° C. for 4 h. After removing the supernatant, 200 μl of dimethylsulfoxide (DMSO) was added to dissolve the crystals. Absorbance at 570 nm was then measured in a microplate reader. Viability was expressed as percentage of the vehicle-treated cells.

[1] = target: T1, recombinant human 5-LO enzyme (Homo sapiens, UniProt P09917); experiment: Direct 5-LO inhibitory activity in a cell-free assay (H2DCF-DA fluorescence); format: biochemical; details: cell-free, recombinant human 5-LO; read-out: Inhibitory Activity IC50, Human recomb. 5-LO
T1 sequence (P09917 1-674): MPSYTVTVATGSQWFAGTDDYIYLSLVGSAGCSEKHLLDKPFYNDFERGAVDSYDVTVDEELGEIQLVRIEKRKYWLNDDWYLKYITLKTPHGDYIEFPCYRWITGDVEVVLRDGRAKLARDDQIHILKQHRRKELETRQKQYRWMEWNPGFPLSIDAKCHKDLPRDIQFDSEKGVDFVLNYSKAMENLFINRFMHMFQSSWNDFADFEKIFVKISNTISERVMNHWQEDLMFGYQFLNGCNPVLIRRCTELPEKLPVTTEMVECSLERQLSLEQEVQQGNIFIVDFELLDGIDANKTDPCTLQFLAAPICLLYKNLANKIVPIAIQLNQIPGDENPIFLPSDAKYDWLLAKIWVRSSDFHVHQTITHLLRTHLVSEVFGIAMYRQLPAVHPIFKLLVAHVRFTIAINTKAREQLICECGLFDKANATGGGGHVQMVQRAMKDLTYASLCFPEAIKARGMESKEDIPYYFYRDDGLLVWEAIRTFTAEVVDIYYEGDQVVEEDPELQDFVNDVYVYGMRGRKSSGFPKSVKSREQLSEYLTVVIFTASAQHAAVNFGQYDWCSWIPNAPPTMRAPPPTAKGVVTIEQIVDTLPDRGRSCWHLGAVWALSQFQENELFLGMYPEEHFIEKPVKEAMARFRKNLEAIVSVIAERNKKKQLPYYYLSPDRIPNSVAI
Procedure: H2DCF-DA (60 μM) was first pre-cleaved by incubating with 450 mU/ml recombinant human 5-LO enzyme in Tris buffer (containing 50 mM Tris, pH=7.5, 2 mM EDTA, 2 mM CaCl2), 1 mM dithiothreitol (DTT) and 0.6 U/ml glutathione peroxidase) for 10 min at room temperature. […] After 10 min incubation at room temperature, the reaction was started with the addition of 50 μl of the substrate solution (Tris buffer containing 20 μM ATP and 20 μM arachidonic acid). After a further 20 min, the reaction was terminated with 100 μl acetonitrile. Fluorescence was read at 500 nm excitation and 520 emission, with Novostar® microplate reader (BMG Labtech, Offenburg, Germany). Appropriate controls, including 100 μM nordihydroguaiaretic acid (NDGA), were included to isolate only the 5-LO-attributable, NDGA-inhibitable RFU values.

[2] = system: zymosan-induced peritonitis; experiment: Zymosan-induced peritoneal inflammation in mice; format: in vivo, mouse; details: 30 min before zymosan i.p., peritoneal exudate at 2 h
Excerpt: Inhibition of zymosan-induced peritoneal inflammation in mice: Female Balb/c mice, 6-8 weeks old, obtained from the Animal Resources Center of the Health Sciences Center, Kuwait University, were used. They were maintained under temperature-controlled conditions with an artificial 12-h light/dark cycle and allowed standard chow and water ad libitum. The study protocol was approved by the “Health Sciences Center Animal Welfare Committee” and complied with the “Guidelines for the Care and Use of Laboratory Animals” of the Health Sciences Centre, Kuwait University. The zymosan-induced peritonitis model-a recognized LT-mediated inflammatory reaction, described particularly in Hanke et al., 2013 ([…]., et al. (2013). Journal of medicinal chemistry, 56(22), 9031-9044) was used. […] After 30 min, all groups were injected intraperitonally with 0.2 ml of activated zymosan (2 mg/ml) except the control group that received 0.2 ml PBS. After 2 h, all animals were killed and the peritoneal exudate was collected by washing the cavity with 3 ml of heparinized (10 IU/ml) PBS.

[3] = system: LTC4 release from IgE/antigen-activated mouse mast cells (BMMC); experiment: Inhibition of LTC4 release in allergen/IgE-activated bone marrow-derived mouse mast cells; format: cell-based; details: BMMC, anti-DNP IgE sensitized, DNP-BSA 30 ng/ml, 30 min
Excerpt: (§1) Inhibition of LTC4 release and degranulation in allergen/IgE-activated bone marrow-derived mouse mast cells (BMMC): Bone marrow-derived mast cells (BMMC) were generated from pathogen-free 5-7 week old male Balb/c mice according to the method of Davis et al., [2004] (Davis, B. J., et al., (2004), Journal of Immunology, 173: 6914-6920). Essentially, bone marrow cells were obtained by flushing of the femoral bone marrow and cultured in RPMI 1640 medium supplemented with 10% FBS, 100 U/ml penicillin, and 100 μg/ml streptomycin, 25 mM HEPES, 1.0 mM sodium pyruvate, 0.1 mM nonessential amino acids, 0.0035% 2-mercaptoethanol, and 30 ng/ml mouse recombinant IL-3, with culture medium replaced every two days. Cells were used after 4-8 weeks of culture, by which time at least 97% of the cells would have differentiated into mast cells.
(§2) The generated BMMCs were seeded at 5×10^4 cells/well in a 96-well flat-bottom culture plate and passively sensitized overnight with 0.5 μg/ml anti-DNP monoclonal IgE antibody (clone SPE-7, Sigma-Aldrich, St. Louis, Mo., USA). The cells were then washed twice to remove any unbound antibody and subsequently re-suspended in reaction buffer (135 mM NaCl, 5 mM KCl, 1.8 mM CaCl2), 1 mM MgCl2, 5.6 mM glucose, 0.05% BSA and 20 mM HEPES, pH 7.4). They were then pre-incubated with the test compounds (0.01-30 μM) or the solvent (0.05% DMSO) for 15 min before being stimulated with the specific antigen, DNP-BSA (30 ng/ml). After 30 min incubation at 37° C., the amount of LTC4 released into the supernatant (as index of 5-LO activity) was determined by ELISA as described below.
Assay of released leukotrienes/β-hexoseaminidase enzyme: Appropriately diluted supernatants were assayed for the released LTs (LTB4 and LTC4), by the enzyme immunoassay (EIA) method using assay kits supplied by R&D Systems (Minneapolis, Minn., USA) and following the manufacturer's instructions.

[4] = system: degranulation of bone marrow-derived mouse mast cells; experiment: Inhibition of degranulation (β-hexoseaminidase release) in allergen/IgE-activated BMMC; format: cell-based; details: anti-DNP IgE sensitized, DNP-BSA 30 ng/ml, 30 min
Excerpt: as §1
as §2, with “They were then pre-incubated with the test compounds (0.01-30 μM) or the solvent (0.05% DMSO) for 15 min before being stimulated with the specific antigen, DNP-BSA (30 ng/ml).” left out
The concurrently-released granular enzyme, β-hexoseaminidase (as index of degranulation) was determined as described below.
The beta-hexoseaminidase released into the supernatant by the degranulating BMMCs was determined colorimetrically using p-nitrophenyl-N-acetyl-β-D-glucosaminide as substrate. […] The absorbance of the colored product (p-nitrophenol) was then read at 405 nm in a microplate reader. Results were expressed as percentage of the total cell content (determined in cells lysed with 0.1% triton-x-100).

Row | IC50 [1] [nM] | melting point [°C] | SMILES | Effect on viability of isolated human monocytes (MTT) (isolated human monocytes) | Net Exudate Vol ([2]; 10 mg/kg s.c.) [mL] | Total Cell No ([2]; 10 mg/kg s.c.) | Total LTC4 ([2]; 10 mg/kg s.c.) [ng] | Net Exudate Vol ([2]; 30 mg/kg s.c.) [mL] | Total Cell No ([2]; 30 mg/kg s.c.) | Total LTC4 ([2]; 30 mg/kg s.c.) [ng] | Inhibition of generation of LTC4 from IgE/allergen-activated mast cells (FIG. 2A) [3] | Inhibition of degranulation (release of granular β-hexoseaminidase) (FIG. 2B) [4]
1 | 3400 | 118.5 to 120.5 | CCCCCC(=O)N(O)C[C@H]1CN(c2ccc(N3CCOCC3)c(F)c2)C(=O)O1 [PH-247, (R)—N-((3-(3-fluoro-4-morpholinophenyl)-2-oxooxazolidin-5-yl)methyl)-N-hydroxyhexanamide] | no significant effect on cell viability |  |  |  |  |  |  |  | 
2 | 1900 | 123 to 125 | CCCCCCC(=O)N(O)C[C@H]1CN(c2ccc(N3CCOCC3)c(F)c2)C(=O)O1 [PH-249, (R)—N-((3-(3-fluoro-4-morpholinophenyl)-2-oxooxazolidin-5-yl)methyl)-N-hydroxyheptanamide] | no significant effect on cell viability | 0.16 ± 0.08 | 39.7 ± 6.6 ×10^6 | 107.2 ± 51.6 | 0.06 ± 0.01 | 17.8 ± 2.2 ×10^6 | 102.8 ± 20.9 | equally effective in inhibiting the generation of LTC4 | able to inhibit degranulation
